We go through 11 compounds from paper PMC3949122 (Current biology : CB, 2014).

Experiment [1] concerns TRPA1. The conditions noted are these: cited from earlier work; for activation of TRPA1 via covalent modification: ref [40]-[44]; for activation of TRPA1 by allosteric modulators: interact with transmembrane domains, not the intracellular C-terminus, ref [41], [45], [46].
In experiment [2] the target is TRPA1 (Homo sapiens, UniProt O75762). Format: cell-based. The conditions noted are these: alanine scanning of t-ProTx-I; label = residue mutated to Ala.
Sequence of TRPA1 (Homo sapiens, UniProt O75762) (O75762 whole entry): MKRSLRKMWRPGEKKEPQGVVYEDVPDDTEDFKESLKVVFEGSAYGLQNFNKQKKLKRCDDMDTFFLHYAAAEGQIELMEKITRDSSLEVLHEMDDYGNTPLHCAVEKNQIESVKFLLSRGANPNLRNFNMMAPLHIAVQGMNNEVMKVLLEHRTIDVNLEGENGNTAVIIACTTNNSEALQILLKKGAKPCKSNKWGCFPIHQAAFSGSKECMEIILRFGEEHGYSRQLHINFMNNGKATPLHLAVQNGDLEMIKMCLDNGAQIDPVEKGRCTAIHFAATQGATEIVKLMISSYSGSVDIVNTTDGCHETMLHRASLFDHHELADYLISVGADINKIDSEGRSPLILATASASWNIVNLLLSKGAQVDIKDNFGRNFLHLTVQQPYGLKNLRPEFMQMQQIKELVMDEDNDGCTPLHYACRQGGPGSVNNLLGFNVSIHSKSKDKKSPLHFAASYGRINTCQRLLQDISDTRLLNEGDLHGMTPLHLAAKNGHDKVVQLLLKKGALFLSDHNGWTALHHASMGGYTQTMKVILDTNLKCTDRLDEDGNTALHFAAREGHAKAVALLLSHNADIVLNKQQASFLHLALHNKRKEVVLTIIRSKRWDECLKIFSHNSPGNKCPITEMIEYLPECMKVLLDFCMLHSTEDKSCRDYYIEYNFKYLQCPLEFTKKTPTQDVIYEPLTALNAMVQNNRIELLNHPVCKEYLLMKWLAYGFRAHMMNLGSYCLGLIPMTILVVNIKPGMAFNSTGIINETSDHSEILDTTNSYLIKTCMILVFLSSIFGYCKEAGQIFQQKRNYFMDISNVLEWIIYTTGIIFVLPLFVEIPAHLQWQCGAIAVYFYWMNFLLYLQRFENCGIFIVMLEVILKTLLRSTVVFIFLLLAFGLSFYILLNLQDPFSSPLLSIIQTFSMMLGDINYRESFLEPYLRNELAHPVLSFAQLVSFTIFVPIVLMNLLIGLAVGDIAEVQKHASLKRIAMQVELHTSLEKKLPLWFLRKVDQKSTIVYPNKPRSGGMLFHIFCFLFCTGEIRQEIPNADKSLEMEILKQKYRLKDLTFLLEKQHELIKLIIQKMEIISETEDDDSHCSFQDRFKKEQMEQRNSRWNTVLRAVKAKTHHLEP
In a further experiment the test system is NaV1.2. In kind it is cell-based. The following applies: membrane-tethered, co-expressed; voltage-induced currents.

Read-outs that look alike come from different tables or passages of the source. Where no end group is shown, it is not given here.

As for `CCCCCC(O)/C=C/C=O` (stereo not shown) [4-hydroxy-nonenal], in the experiment with TRPA1 [1], the “activation of TRPA1 via covalent modification” value was “activates TRPA1”.

Regarding `C=CCS[S+]([O-])CC=C` (stereo not shown) [allicin], the “activation of TRPA1” value in the experiment with TRPA1 [1] (ref [5], [6]) is listed as “activated”.

For `C=CCN=C=S` [allyl isothiocyanate], in the experiment with TRPA1 [1], the “activation of TRPA1 via covalent modification” value is on record as “activates TRPA1”. Also, the “activation of TRPA1” value in the experiment with TRPA1 [1] (ref [5], [6]) is given as “activated”.

For `Cc1ccc(C(C)C)cc1O` [carvacrol], in the experiment with TRPA1 [1], the “activation of TRPA1 by allosteric modulators” value is “allosteric modulators”.

Turning to `CN(C)CCCN1c2ccccc2Sc2ccc(Cl)cc21` [chlorpromazine], in the experiment on TRPA1 [1] (ref [8]), the “activation of TRPA1” value is on record as “activated”.

As to `Oc1c(I)cc(Cl)c2cccnc12` [clioquinol], the “activation of TRPA1” value with TRPA1 [1] (ref [9]) is listed as “activated”.

As for `Clc1ccccc1C(c1ccccc1)(c1ccccc1)n1ccnc1` [clotrimazole], in the experiment with TRPA1 [1] (ref [7]), the “activation of TRPA1” value was “activated”.

`OO` [hydrogen peroxide]: in the experiment with TRPA1 [1], the “activation of TRPA1 via covalent modification” value was “activates TRPA1”.

In the case of `OCl` [hypochlorite], in the experiment on TRPA1 [1], the “activation of TRPA1 via covalent modification” value is recorded as “activates TRPA1”.

For `CC1CCC(C(C)C)C(O)C1` (stereo not shown) [menthol], the “activation of TRPA1 by allosteric modulators” value in the experiment on TRPA1 [1] is given as “allosteric modulators”.

In the case of “t-ProTx-I (S22A) (ECRYWLGGCSAGQTCCKHLVCARRHGWCVWDGTFS; ends and bridges not checked; also: membrane tether; UniProt P83480 1-35, looked up, variant S22A)”, the “residue whose mutation to alanine reduces inhibition of TRPA1 (binding surface)” value with TRPA1 [2] is “in common between the two binding surfaces”. For the same compound, the “activity of t-ProTx-I alanine mutant against NaV1.2 / voltage-gated sodium channels” value in the experiment on NaV1.2 was “strongly active”.
